The source of these data is ChEMBL document CHEMBL5537112, “Emerging opportunities to treat idiopathic pulmonary fibrosis: Design, discovery, and optimizations of small-molecule drugs targeting fibrogenic pathways” (Eur J Med Chem, 2023).

Series [1] deals with T1, fMet-Leu-Phe receptor (Homo sapiens, UniProt P21462).
T1 sequence (P21462 whole entry): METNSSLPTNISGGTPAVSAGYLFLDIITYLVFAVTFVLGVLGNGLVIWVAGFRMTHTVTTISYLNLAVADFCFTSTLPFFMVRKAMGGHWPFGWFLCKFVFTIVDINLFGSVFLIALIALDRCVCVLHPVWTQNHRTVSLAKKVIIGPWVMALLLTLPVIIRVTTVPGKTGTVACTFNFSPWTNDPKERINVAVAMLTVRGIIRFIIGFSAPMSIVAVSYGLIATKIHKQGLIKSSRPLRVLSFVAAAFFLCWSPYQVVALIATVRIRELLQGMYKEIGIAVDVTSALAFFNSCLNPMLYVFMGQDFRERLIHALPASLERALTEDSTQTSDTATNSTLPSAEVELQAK
In words: Inhibition of human FPR expressed in human U-937 cells by fluorescence based ligand binding assay. In kind it is cell-based.

For series [2], the target named is T2, Platelet-derived growth factor receptor beta (Homo sapiens, UniProt P09619). In words: Inhibition of PDGFRbeta (unknown origin) by DiscoverX KINOMEscan assay.
The target in series [3] is Vascular endothelial growth factor receptor 2 (Homo sapiens, UniProt P35968). In words: Inhibition of VEGFR2 (unknown origin).
In series [4] the target is T3, Type-1 angiotensin II receptor (Homo sapiens, UniProt P30556).
T3 sequence (P30556 whole entry): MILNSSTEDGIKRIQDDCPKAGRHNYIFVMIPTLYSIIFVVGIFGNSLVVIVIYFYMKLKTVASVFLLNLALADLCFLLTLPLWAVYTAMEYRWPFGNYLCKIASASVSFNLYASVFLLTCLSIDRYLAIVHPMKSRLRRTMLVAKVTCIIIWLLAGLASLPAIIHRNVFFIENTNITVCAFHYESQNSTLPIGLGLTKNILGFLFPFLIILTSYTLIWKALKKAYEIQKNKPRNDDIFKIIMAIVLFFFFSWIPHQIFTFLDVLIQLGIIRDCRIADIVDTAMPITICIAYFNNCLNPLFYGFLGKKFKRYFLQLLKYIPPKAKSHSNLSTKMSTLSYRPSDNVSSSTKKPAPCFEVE
Description: Binding affinity to AT1R (unknown origin) assessed as inhibition constant.

Series [5] has as its target Voltage-gated inwardly rectifying potassium channel KCNH2 (Homo sapiens, UniProt Q12809). Description: Inhibition of hERG.
Series [6] can be described thus: Oral bioavailability in rat. In kind it is ADME, organism-based. To be noted: in vivo.
Series [7] in a line: Clearance in rat at 5 mg/kg, iv. To be noted: in vivo. In kind it is ADME, organism-based.
Series [8] in a line: Half life in rat. It is filed as ADME. Conditions: in vivo.
Series [9] deals with T2, Platelet-derived growth factor receptor beta. Description: Inhibition of PDGFRbeta (unknown origin) by enzymatic assay.
The target is the same in series [10]. Description: Inhibition of glutathione S-transferase fused PDGFbetaR (unknown origin) in 3T3 cells. It is filed as cell-based.
Series [11] is described as follows: Metabolic stability in Sprague-Dawley rat assessed as half life. It is filed as ADME.
A short description of series [12]: AUC in Sprague-Dawley rat at 10 mg/kg, po. It is filed as ADME, organism-based. To be noted: in vivo.
Series [13] has as its target Phosphatidylinositol 4,5-bisphosphate 3-kinase catalytic subunit alpha isoform (Homo sapiens, UniProt P42336). Description: Inhibition of PI3Kalpha (unknown origin) by kinase profiling assay.
Series [14] concerns the target Sphingosine 1-phosphate receptor 2 (Homo sapiens, UniProt O95136). Description: Agonist activity at S1P2 (unknown origin) expressed in CHO cells assessed as Ca2+ activation. It is filed as functional, cell-based.
The target of series [15] is Lysophosphatidic acid receptor 1 (Homo sapiens, UniProt Q92633). Description: Antagonist activity at human LPA1 receptor expressed in CHO cells assessed as inhibition of LPA-induced calcium mobilization pretreated for 15 mins followed by LPA stimulation by FLIPR analysis. It is filed as functional, cell-based.
Series [16] can be described thus: Clearance in rat at 1 mg/kg, iv. It is filed as ADME, organism-based. Conditions: in vivo.
Series [17] in a line: Oral bioavailability in rat at 5 mg/kg. In kind it is ADME, organism-based. To be noted: in vivo.
Series [18] can be described thus: in vivo. Conditions: rat, po, 5 mg/kg.
Description: Half life in rat at 5 mg/kg, po

T2 sequence (P09619 whole entry): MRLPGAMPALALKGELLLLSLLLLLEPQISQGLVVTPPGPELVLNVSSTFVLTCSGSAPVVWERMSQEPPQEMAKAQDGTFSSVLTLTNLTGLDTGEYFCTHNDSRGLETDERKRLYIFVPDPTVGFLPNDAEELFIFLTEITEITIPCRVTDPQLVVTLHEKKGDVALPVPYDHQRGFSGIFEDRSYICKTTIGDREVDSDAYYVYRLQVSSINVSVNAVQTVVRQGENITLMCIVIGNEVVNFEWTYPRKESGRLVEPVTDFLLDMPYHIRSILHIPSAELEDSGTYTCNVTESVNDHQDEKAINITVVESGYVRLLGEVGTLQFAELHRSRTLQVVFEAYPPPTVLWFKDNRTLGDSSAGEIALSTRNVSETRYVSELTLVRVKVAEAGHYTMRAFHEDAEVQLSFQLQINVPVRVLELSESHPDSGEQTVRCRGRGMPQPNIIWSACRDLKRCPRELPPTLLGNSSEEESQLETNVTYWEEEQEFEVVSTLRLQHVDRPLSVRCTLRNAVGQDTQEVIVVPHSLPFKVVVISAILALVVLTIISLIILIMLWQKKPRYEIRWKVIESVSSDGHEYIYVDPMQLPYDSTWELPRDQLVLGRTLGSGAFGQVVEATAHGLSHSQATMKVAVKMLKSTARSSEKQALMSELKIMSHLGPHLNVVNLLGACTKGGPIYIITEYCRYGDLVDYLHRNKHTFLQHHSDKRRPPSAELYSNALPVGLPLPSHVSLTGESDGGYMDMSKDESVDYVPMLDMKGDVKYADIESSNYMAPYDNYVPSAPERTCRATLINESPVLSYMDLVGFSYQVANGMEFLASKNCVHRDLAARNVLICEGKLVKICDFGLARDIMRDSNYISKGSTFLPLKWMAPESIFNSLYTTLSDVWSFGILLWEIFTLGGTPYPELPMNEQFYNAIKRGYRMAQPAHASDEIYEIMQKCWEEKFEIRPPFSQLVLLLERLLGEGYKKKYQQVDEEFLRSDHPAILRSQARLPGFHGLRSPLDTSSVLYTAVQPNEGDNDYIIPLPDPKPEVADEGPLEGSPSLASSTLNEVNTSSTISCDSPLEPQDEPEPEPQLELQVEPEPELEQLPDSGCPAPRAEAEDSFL
Chain of Vascular endothelial growth factor receptor 2 (P35968 whole entry): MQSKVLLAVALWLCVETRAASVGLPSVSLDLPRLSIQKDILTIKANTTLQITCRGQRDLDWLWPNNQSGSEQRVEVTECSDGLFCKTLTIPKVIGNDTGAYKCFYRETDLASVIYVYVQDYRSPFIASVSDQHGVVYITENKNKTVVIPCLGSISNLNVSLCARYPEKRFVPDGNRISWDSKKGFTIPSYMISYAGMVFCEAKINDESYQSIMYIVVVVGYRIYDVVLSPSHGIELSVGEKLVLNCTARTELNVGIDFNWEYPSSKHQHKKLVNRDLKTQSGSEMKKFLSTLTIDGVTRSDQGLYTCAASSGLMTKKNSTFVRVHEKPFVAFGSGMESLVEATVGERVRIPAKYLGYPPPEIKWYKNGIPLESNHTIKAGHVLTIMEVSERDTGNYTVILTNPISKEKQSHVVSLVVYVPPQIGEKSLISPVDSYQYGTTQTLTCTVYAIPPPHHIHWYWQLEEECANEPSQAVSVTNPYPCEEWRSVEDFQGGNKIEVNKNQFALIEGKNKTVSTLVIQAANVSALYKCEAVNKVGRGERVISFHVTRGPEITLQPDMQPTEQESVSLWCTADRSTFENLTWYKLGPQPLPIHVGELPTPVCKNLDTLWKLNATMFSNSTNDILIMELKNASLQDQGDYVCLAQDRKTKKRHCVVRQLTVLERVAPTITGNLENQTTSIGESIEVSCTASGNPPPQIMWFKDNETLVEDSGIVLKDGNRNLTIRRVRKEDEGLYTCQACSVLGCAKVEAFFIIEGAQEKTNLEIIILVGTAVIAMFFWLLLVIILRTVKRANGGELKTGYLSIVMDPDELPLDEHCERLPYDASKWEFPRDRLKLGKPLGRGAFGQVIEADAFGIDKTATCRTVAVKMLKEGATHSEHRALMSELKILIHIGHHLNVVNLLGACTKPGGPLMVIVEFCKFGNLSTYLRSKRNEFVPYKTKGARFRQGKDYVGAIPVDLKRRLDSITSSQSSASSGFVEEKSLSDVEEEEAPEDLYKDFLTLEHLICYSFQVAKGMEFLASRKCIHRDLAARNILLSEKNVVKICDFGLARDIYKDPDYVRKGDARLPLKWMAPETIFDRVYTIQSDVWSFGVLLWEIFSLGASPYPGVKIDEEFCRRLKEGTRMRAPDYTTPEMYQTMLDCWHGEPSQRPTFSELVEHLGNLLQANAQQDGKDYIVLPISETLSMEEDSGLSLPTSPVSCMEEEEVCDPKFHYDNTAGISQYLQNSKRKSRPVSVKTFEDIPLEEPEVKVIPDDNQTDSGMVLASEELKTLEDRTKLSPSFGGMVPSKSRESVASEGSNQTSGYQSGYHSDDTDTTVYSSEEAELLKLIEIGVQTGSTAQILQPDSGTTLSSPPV
Chain of Phosphatidylinositol 4,5-bisphosphate 3-kinase catalytic subunit alpha isoform (P42336 whole entry, canonical isoform): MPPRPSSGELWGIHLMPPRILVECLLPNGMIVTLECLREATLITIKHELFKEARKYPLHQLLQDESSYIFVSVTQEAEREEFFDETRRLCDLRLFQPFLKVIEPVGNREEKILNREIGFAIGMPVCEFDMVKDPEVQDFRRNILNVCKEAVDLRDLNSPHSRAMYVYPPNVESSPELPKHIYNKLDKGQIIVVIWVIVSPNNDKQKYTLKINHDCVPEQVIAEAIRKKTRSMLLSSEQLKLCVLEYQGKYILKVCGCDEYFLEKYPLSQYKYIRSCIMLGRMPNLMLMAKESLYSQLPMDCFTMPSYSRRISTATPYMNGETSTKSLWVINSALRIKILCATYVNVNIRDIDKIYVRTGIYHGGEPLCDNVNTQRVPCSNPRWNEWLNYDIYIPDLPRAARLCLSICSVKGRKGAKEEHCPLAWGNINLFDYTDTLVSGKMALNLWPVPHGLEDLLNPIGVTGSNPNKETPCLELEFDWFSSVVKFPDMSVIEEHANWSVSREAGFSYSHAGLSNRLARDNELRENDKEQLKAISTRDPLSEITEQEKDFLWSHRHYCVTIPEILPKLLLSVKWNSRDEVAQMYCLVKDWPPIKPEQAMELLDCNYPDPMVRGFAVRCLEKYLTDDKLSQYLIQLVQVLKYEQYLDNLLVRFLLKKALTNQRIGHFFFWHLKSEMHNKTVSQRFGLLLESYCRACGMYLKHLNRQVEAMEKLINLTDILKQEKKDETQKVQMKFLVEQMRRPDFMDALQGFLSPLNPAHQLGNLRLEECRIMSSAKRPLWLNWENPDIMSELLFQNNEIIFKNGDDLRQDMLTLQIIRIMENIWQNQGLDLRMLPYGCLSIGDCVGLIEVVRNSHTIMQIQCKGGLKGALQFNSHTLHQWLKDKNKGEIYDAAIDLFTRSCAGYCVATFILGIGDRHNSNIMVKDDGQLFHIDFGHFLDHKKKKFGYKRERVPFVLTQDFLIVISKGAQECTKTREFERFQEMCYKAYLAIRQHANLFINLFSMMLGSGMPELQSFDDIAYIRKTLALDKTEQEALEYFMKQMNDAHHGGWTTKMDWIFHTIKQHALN
Chain of Voltage-gated inwardly rectifying potassium channel KCNH2 (Q12809 whole entry): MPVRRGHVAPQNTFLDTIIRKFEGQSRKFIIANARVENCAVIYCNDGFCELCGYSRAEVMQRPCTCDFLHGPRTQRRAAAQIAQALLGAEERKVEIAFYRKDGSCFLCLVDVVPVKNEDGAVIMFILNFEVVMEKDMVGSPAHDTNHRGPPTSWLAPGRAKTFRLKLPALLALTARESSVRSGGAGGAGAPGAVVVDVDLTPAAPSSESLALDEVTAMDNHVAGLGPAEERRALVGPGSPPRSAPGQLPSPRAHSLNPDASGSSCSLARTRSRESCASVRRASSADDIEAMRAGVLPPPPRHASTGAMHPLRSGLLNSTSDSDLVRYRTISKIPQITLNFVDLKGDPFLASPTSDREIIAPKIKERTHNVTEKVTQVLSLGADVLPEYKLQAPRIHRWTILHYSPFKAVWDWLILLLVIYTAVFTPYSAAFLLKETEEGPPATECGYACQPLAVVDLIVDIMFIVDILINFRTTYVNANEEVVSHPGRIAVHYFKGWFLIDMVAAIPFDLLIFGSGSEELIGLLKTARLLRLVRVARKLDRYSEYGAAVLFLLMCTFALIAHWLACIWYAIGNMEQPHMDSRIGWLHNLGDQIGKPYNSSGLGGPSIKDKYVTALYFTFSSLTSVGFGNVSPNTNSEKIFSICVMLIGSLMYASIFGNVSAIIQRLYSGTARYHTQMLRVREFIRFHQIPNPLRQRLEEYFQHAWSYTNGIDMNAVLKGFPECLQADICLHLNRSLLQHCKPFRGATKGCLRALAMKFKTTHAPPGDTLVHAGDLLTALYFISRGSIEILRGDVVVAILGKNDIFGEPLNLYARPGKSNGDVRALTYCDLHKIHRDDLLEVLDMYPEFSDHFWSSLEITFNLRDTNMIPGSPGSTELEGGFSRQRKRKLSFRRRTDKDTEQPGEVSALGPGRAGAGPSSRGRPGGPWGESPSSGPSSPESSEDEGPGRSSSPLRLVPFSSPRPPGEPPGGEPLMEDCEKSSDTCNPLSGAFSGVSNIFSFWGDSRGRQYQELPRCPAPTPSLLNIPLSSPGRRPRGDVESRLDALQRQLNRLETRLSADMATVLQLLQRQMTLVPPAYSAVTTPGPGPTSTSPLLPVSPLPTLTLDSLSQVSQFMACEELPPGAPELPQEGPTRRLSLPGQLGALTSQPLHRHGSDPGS
Chain of Sphingosine 1-phosphate receptor 2 (O95136 whole entry): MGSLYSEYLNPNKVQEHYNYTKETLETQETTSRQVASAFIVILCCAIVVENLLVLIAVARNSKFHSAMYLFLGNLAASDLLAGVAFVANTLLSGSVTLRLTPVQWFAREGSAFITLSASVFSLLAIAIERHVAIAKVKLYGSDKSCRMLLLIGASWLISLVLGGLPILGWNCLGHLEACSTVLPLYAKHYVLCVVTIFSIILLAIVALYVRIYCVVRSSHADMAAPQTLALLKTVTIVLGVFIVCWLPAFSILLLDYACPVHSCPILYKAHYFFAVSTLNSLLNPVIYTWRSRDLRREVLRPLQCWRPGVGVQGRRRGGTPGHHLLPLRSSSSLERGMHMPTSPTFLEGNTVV

On to `Cc1c(-c2ccccc2)nc2ccc(Br)cc2c1C(=O)NC[C@H](CC(=O)O)c1ccccc1Cl`, for which the concentration for half-maximal inhibition (IC50) (commonly the concentration at which inhibition is half-maximal) in series [1] came to 0.032 µM.
Turning to `CNC(=O)c1cc2c(Oc3ccc(NC(=S)NC(=O)Cc4ccccc4)cc3F)ccnc2cc1OC` [TAS-115], the IC50 in series [2] was 0.00706 µM.
`COc1cc2c(Oc3ccc4[nH]c(C)cc4c3F)ccnc2cc1OCC1(N)CC1` returned an IC50 in [3] below 0.001 µM.
For `CCCCOC(=O)NS(=O)(=O)c1sc(CC(C)C)cc1-c1ccc(Cn2c(CC)nc3c(C)cc(C)nc32)cc1`, in [4], the Ki (usually a dissociation constant, usually derived from enzyme kinetics or from competition with a known ligand) came to 0.0039 µM.
Regarding `COC(=O)c1ccc2c(c1)NC(=O)/C2=C(\Nc1ccc(N(C)C(=O)CN2CCN(C)CC2)cc1)c1ccccc1` [NINTEDANIB], the IC50 in series [5] is 2.6 µM.
Turning to `CCc1nc2c(C)cc(N3CCN(CC(=O)N4CC(O)C4)CC3)cn2c1N(C)c1nc(-c2ccc(F)cc2)c(C#N)s1` [ZIRITAXESTAT], the bioavailability (usually the share of a dose that reaches the circulation, judged against a reference dose that is usually intravenous) in series [6] is 34%. Also, in series [7], the clearance (commonly a measure of how efficiently the substance is removed, as volume per time) was determined as 11.5 mL/min/kg.
In the case of `COC(=O)c1ccc2c(c1)NC(=O)/C2=C(\Nc1ccc2c(c1)CCN2C(=O)CN1CCOCC1)c1ccccc1`, the half-life in series [8] and in series [11] was 4.8 h each time. Moreover, the IC50 in series [9] was 0.025 µM; in series [3] it was 0.11 µM; in series [10], 0.1 µM. The AUC in series [12] is 6406 h/ng/mL.
Consider `O=C1NC(=O)C(Cc2ccc3nccc(-c4ccncc4)c3c2)S1` (stereo not given), for which, in [13], the IC50 is 0.002 µM.
Consider `Cc1cc(NNC(=O)Nc2cc(Cl)nc(Cl)c2)ncc1-c1cn(C)nc1C`, for which, in series [14], the IC50 was above 1.4 µM.
Take `Cc1noc(-c2ccc(-c3ccc(C4(C(=O)O)CC4)cc3)cc2)c1NC(=O)O[C@H](C)c1ccccc1` [BMS-986020]: the concentration for a half-maximal effect (EC50) (commonly the concentration needed to bring the measured effect to its halfway point) in [15] worked out at 0.0067 µM.
`O=S(=O)(Nc1cncc(-c2ccc3nccc(-c4ccncc4)c3c2)c1)c1ccccc1F`: in series [13], inhibition was half-maximal at 0.0001 µM (IC50).
As for `O=c1nc(OC[C@@H]2COCCO2)cc2n1CCc1cc(C#CC3CC3)ccc1-2` [GLPG-1205], the clearance in series [16] was determined as 15 mL/min/kg. In addition, the bioavailability in series [17] was above 100%. For the same molecule, the half-life (commonly how long it takes for the measured level to halve) in [18] was 1.9 h.
